# Columns and labels:
# [1] = system: RS4;11, SEM, Jurkat and THP-1 cell lines and PBMC from healthy donors; assay: Cellular uptake, intracellular copper by GF-AAS; format: cell-based, human; details: 6.25, 12.5 and 25 μM CP, 24 h, leukemic cells vs healthy PBMC
# Method: In an attempt to correlate the cytotoxic activity of CP with its cellular uptake, the intracellular copper content was evaluated in RS4;11, SEM, Jurkat and THP-1 cell lines and PBMC from healthy donors treated for 24 h with increasing concentrations of CP. The intracellular copper amount (Figure 1, panel A) was quantified by GF-AAS analysis (Graphite Furnace Atomic Absorption Spectrometry).
# FIGURE 1 CP uptake and effects on cell cycle and apoptosis induction A) RS4;11, SEM, THP1, Jurkat cell lines and healthy PBMC were incubated with 6.25, 12.5 and 25 μM of CP for 24 h. The intracellular accumulation of CP was detected by GF-AAS analysis. B) SEM and RS4;11 cells were treated with the indicated concentrations of CP for 24 h, cell cycle distribution and Sub-G1 contents were analyzed by flow cytometry after cell staining with PI. The percentages of each phase of the cell cycle (G1, S, G2/M) were calculated on living cells whereas the percentages of cells with hypodiploid DNA content peak (subG1) was referred to cell population characterized by the appearance of subG1 peak. C) SEM and RS4;11 cells were incubated with 2.5 μM CP for the indicated times and analyzed by flow cytometry after double staining with Annexin-V-FITC and PI. Data are represented as mean ± S.E.M. of three independent experiments. […]
# [2] = system: RS4;11 and SEM cells; assay: Mitochondrial transmembrane potential, JC-1; format: cell-based, human; details: CP 2.5 μM
# Method: To determine whether the apoptotic stimuli involved mitochondria alteration, we examined the mitochondrial transmembrane potential (ΔΨmt) by means of the fluorescence dye JC-1.
# FIGURE 2 CP induces caspase-dependent apoptosis without mitochondria involvement (A) Assessment of mitochondrial membrane potential (ΔΨmt) after treatment of RS4;11 and SEM cells with CP (2.5 μM) for the indicated times. Cells were stained with the fluorescent probe JC-1. Data are represented as mean ± S.E.M. of three independent experiments. (B) Flow cytometric analysis of RS4;11 and SEM cells treated with CP (2.5 μM) for 24 h showing cytochrome c labeled with a monoclonal antibody conjugated to FITC. Representative image of three experiments with similar results. (C) Cells were incubated with CP 2.5 μM and 5 μM in the presence or absence of the pan-caspase inhibitor z-VAD.fmk (100 μM). Cell viability was determined after 48 h by MTT assay. […]
# The mitochondrial membrane potential was measured with the lipophilic cation 5,5',6,6'-tetrachlo-1,1',3,3'-tetraethylbenzimidazolyl-carbocyanine (JC-1) (Life Technologies, Italy) as previously described. Cytochrome c release was analyzed by flow cytometry using a commercial kit (Innocyte flow cytometric cytochrome c release kit, Calbiochem, Italy) following the manufacturer's instructions.
# [3] = system: human leukemia cell lines; assay: MTT growth inhibition, panel of twelve leukemia cell lines, 72 h; format: cell-based; details: healthy lymphocytes vs B-leukemia cells
# Method: [Cu(thp)4][PF6] (CP) was evaluated for its growth inhibition activity on a panel of twelve different human leukemia cell lines (five B-acute lymphoblastic leukemia, three T-acute lymphoblastic leukemia, three acute myeloid leukemia and one chronic myeloid leukemia). Cells were treated for 72 h with CP and cell viability was evaluated by MTT test. […] This abnormal high expression of proteasomal proteins and mRNA seem to be correlated to the hyperproliferation of these cancer cells and to the sensitivity towards proteasome inhibitors.
# The human leukemia cell lines RS 4;11, SEM, REH, RCH-ACV, MHH-CALL2, Jurkat, CCRF-CEM, HSB2, HL-60, K562, THP-1, MV4;11 were purchased from the American Type Culture Collection. Cells were cultured in RPMI 1640 (Life Technologies, Italy) supplemented with 10% fetal bovine serum (FBS), glutamine (2 mM; Life Technologies, Italy), penicillin (100 U/ml; Life Technologies, Italy) and streptomycin (100 μg/ml; Life Technologies, Italy), and maintained at 37°C in a humidified atmosphere with 5% CO2. The cytotoxic activity of CP was determined using a standard 3-[4,5-dimethylthiazol-2-yl]-2,5-diphenyltetrazodium bromide (MTT) based colorimetric assay (Sigma-Aldrich, Italy). Briefly, cells were seeded at a density of 2×10^4 cells/well in 96-well microtiter plates. After 24 h, cells were exposed to the test compound. After different times, cell survival was determined by the addition of an MTT solution as previously described.
smiles,measurement,setting,value
"F[P-](F)(F)(F)(F)F.OCP(CO)CO.OCP(CO)CO.OCP(CO)CO.OCP(CO)CO.[Cu+] [CP, [Cu(thp)4][PF6]]",intracellular copper content,[1],marked increase of copper intracellular content in comparison with healthy PBMC
same,percentage of cells with low ΔΨmt,[2],"slightly increased, only after 12 h"
same,cytotoxic activity on healthy lymphocytes lower than B-leukemia cells,[3],5-10 fold

# Reference: article PMC4171606, “A novel copper(I) complex induces ER-stress-mediated apoptosis and sensitizes B-acute lymphoblastic leukemia cells to chemotherapeutic agents” (Oncotarget, 2014)
